This note sets out measurements from PubChem BioAssay AID396.

The assay deals with 14-3-3 protein beta/alpha (Homo sapiens) (UniProt P31946). The assay can be described thus: 14-3-3 beta ligand binding via Tm shift – biophysical, DSF, SYPRO orange, recombinant human protein (AID 396). To be noted: Recombinant YWHAB, DSF SYPRO orange thermal shift; at 10 µM; protein 2.3 µM; buffer 10 mM HEPES; pH 7.5; NaCl 150 mM; active compounds read high.
Chain of 14-3-3 protein beta/alpha (Homo sapiens) (P31946 whole entry, looked up): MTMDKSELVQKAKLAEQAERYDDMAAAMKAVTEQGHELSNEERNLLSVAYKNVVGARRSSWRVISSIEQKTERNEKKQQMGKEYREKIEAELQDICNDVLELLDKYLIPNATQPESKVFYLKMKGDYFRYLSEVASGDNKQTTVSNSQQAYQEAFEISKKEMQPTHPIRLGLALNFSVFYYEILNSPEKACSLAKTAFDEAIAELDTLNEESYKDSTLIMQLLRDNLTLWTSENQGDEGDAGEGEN

As to `O=c1c(O)c(-c2ccc(O)c(O)c2)oc2cc(O)cc(O)c12`, the Tm shift is 3.13 Celsius.
